Laboratory results taken from paper PMC10096453, “One-Pot Synthesis and Evaluation of Antioxidative Stress and Anticancer Properties of an Active Chromone Derivative” (Molecules, 2023).
Read-outs that look alike come from different tables or passages of the source.

Legend:
[1] = ABTS radical cation scavenging assay; assay type: biochemical
Excerpt: (§1) Three in vitro antioxidant assays (DPPH, FRAP, and ABTS) were utilized to evaluate the antioxidant property of the synthesized compounds. The DPPH (α, α-diphenyl-β-picrylhydrazyl) assay is the well-known approach to determine antioxidant activity using a stable free radical DPPH, measure the absorbance change, and calculate the absorbance change in the percentage of scavenging activity. […] For example, the ferric-tripyridyltriazine (Fe^3+-TPTZ, colorless) complex is reduced to ferrous tripyridyltriazine (Fe^2+-TPTZ) at low pH and introduces a blue color with maximum absorption at 593 nm. The change in absorbance is related to antioxidant activity. However, a significant limitation of these in vitro tests is the non-physiological measurement conditions (no enzymatic condition and no transition metal ion chelating activity); therefore, the results obtained may not reflect the antioxidant activity of the source material under the biological conditions that exist in humans and animals. The ABTS assay involves a more drastic radical that is chemically produced. The use of ABTS for antioxidant activity determination of hydrophilic and lipophilic pure compounds has attracted interest due to its solubility in organic and aqueous media and stability in a wide pH range [31].
The ABTS assay was prepared by reaction of 5 mL of a 7 mM aqueous ABTS (2,2′-azino-bis (3-ethylbenzthiazoline-6-sulphonic acid) solution and 2.45 mM potassium persulfate solution (K2S2O8). After preparation and storage in the dark for 16 h, the radical cation solution was further diluted in ethanol to absorb about 0.7 at 734 nm. Trolox and test sample solutions were prepared in stock solution with DMSO and diluted with ethanol. A solution of 100 μL of the sample was mixed with 100 μL of the ABTS reagent in a 96-well plate. The mixture was shaken in a dark place for 10 min and incubated at 37 °C for 20 min, and the absorbance was determined at 734 nm. Absorbance determinations were recorded immediately and not more than 1 h after adding the reagent. The solution without the sample was used as a blank. All the determinations were made in triplicate. The sample’s scavenging percentage was calculated from this equation: scavenging percentage = (Absorbance control − Absorbance sample) × 100/Absorbance control. EC50 values were calculated from the relationship curve of %scavenging versus sample concentration.

[2] = DPPH radical scavenging assay; assay type: biochemical; set-up: DPPH517nm % SA ± SD: dose or concentration left out as unconfirmed; conditions: for DPPH517nm % SA ± SD: mean of three measurements; for EC50: read-out: DPPH517nm EC50 ± SD
Excerpt: as §1
The DPPH method was followed and modified from a previous study. Trolox was used as a reference. The DPPH stock solution at a concentration of 0.625 mM was prepared in 50% ethanol and kept at 4 °C in the dark. On the day of the experiment, 0.208 mM fresh DPPH working solution was freshly prepared by further diluting with 50% ethanol. […] Each reaction was carried out in a 96-well plate, and 100 μL of test preparation and DPPH solution were added. The 96-well plate was then shaken well for 10 min and kept in the dark at room temperature for 20 min, and the absorbance was recorded at 515–517 nm. According to the method described, delocalization also results in a deep violet color and is quantified as a percentage of scavenging activity. % scavenging activity (SA) = 100 × (Asample − Ablank)/(Acontrol − Ablank)(1) where Acontrol and Asample are the absorbances of the test DPPH without and with a sample, respectively. Ablank is the absorbance of the solvent used. The EC50 values were calculated from the relationship curve of %SA versus sample concentration. The experiment was carried out at least in triplicate.

[3] = FRAP (ferric reducing antioxidant power) assay; assay type: biochemical; conditions: Trolox equivalent
Excerpt: as §1
The FRAP assay is a method for assessing antioxidant power. Briefly, the FRAP reagent was prepared from acetate buffer pH 3.6, 10 mM TPTZ solution in 40 mM HCl and 20 mM FeCl3.6 H2O in relative proportions of 10:1:1, v/v, respectively. The FRAP reagent was freshly prepared daily. A solution of 5 μL of the sample (3–300 μM, approx.) was mixed with 180 μL of the FRAP reagent in a 96-well plate. The mixture was shaken in the dark for 10 min and incubated at 37 °C for 20 min, and the absorbance was determined at 593 nm. The solution without the sample was used as a blank. All determinations were made in triplicate. Trolox was used as a standard antioxidant and plot the calibration curve between absorbance and concentration. Quercetin was applied as the reference compound. The FRAP values were calculated by comparing the absorbance change in the test sample and represented in μM of Trolox equivalent per μM of sample.

[4] = MTT cytotoxicity assay, HACAT cells; assay type: cell-based; conditions: human; for viability at 24 h, 100 µM: read-out: % Viability ± SD (at 100 μM) HACAT 24 h; for viability at 48 h, 100 µM: read-out: % Viability ± SD (at 100 μM) HACAT 48 h
Description: (§2) HEK293, HACAT, and HeLa cells were grown in modified Eagles’ minimum essential medium (EMEM, Gibco) with 10% fetal bovine serum (FBS, Gibco), 1% of 100 U/mL streptomycin and 100 U/mL penicillin (Gibco). Cells were seeded in culture flasks and maintained in an incubator at 37 °C in a humidified atmosphere with 5% CO2. After reaching 80–90% of confluence, cells were detached by incubation with 0.25% trypsin-0.2% EDTA (Gibco) for 5 min and plated for experiments.
(§3) This study examined cell cultures of HEK293, HACAT, and HeLa cells. The cytotoxicity of the test samples was carried out by the MTT (3-(4,5-dimethylthiazol-2-yl)-2,5-diphenyltetrazolium bromide) assay. The cells were seeded in 96-well microliter plates (2.0 × 10^4 cells/well). Stock solutions of the test compounds were prepared in DMSO. After 24 h, cells were treated with different concentrations of samples and diluted with media to obtain the final desired concentration. The treated cells were then incubated at 37 °C and 5% CO2 for 24 and 48 h. After incubation, the medium was replaced with 0.05% w/v of MTT solution in PBS and further incubated for 3 h. The solution was then discarded and DMSO was added to dissolve the formed formazan crystals. Each well’s absorbance (A) was measured at 570 nm using a microplate reader (FLUOstar Omega^TM, BMG Labtech, Ortenberg, Germany). All experiments were carried out in triplicate and repeated for at least three experiments.

[5] = MTT cytotoxicity assay, HEK293 cells; assay type: cell-based; conditions: human, HEK293 cells, 100 μM; for viability at 24 h, 100 µM: read-out: % Viability ± SD (at 100 μM) HEK293 24 h; for viability at 48 h, 100 µM: read-out: % Viability ± SD (at 100 μM) HEK293 48 h
Description: as §2, §3

[6] = tested on: HeLa cell; assay: MTT anticancer activity assay, HeLa cells; assay type: cell-based
Description: as §2, §3

[7] = tested on: HeLa cells; assay: Cell cycle analysis by flow cytometry; assay type: cell-based; conditions: 24 h, 2f, 2j, quercetin at IC50, paclitaxel 5 μM
Description: The paclitaxel (5 μM) was performed as the positive control.
The treatment of HeLa cells and compounds was the same as in the apoptosis protocol. The cells were harvested for 200 μL and centrifuged at 600× g for 5 min and washed with PBS. The mixing cells were slowly added 200 μL of ice-cold 70% ethanol and incubated for at least 3 h at −20 °C. Cells were centrifuged and washed with PBS. Finally, cells were stained with 200 μL of Muse® cell cycle reagent and incubated at room temperature for 30 min in the dark. The cell was analyzed by flow cytometry (Guava Muse Cell Analyzer, Luminex, Austin, TX, USA).

[8] = Homo sapiens, 24 h, read-out: % Viability ± SD (at 100 μM) HeLa 24 h
[9] = Homo sapiens, 48 h, read-out: % Viability ± SD (at 100 μM) HeLa 48 h

Row | Structure (SMILES) | melting point [°C] | IC50 ([6]; 24 h) [µM] | IC50 ([6]; Homo sapiens, HeLa, 24 h) [µM] | EC50 [2] [µM] | EC50 ([1]; read-out: ABTS734nm EC50 ± SD) [µM] | ABTS734nm % Scavenging at 500 µM [1] [%] | DPPH517nm % SA ± SD [2] [%] | FRAP593nm Value ± SD (TE) [3] | viability at 24 h, 100 µM [4] [%] | viability at 48 h, 100 µM [4] [%] | viability at 24 h, 100 µM [5] [%] | viability at 48 h, 100 µM [5] [%] | viability at 100 µM [6, 8] [%] | viability at 100 µM [6, 9] [%] | Anticancer activity on cervical cancer cells ([6]; HeLa, 24 h) | Cell cycle phase arrest [7] | Cell population in G0/G1 phase [7] [%] | Cell population in G2/M phase [7] [%] | Cell population in S phase [7] [%]
1 | O=C(c1ccccc1)c1c(-c2ccccc2)oc2ccc(O)cc2c1=O [2b, 3-Benzoyl-6-hydroxy-2-phenyl-4H-chromen-4-one] | 201 to 203.5 | 95.7 ± 1.16 | 95.7 |  |  | 35.99 ± 1.32 | 5.32 ± 2.43 | 0.02 ± 0.003 µM Trolox/1 µM of Synthesized Compounds | 75.7 ± 3.38 | 74.9 ± 1.55 | 105 ± 2.7 | 72.4 ± 8.55 | 40.9 ± 0.41 | 24.8 ± 1.05 | contained anticancer activity |  |  |  | 
2 | COc1ccc2oc(-c3ccccc3)c(C(=O)c3ccccc3)c(=O)c2c1 [2c, 3-Benzoyl-6-methoxy-2-phenyl-4H-chromen-4-one] | 194 to 196 |  |  |  |  | 13.16 ± 0.78 | 5.88 ± 2.65 | 0.07 ± 0.028 µM Trolox/1 µM of Synthesized Compounds | 62.3 ± 3.04 | 60.4 ± 0.73 | 72.5 ± 6.46 | 74 ± 1.32 | 60.67 ± 0.57 | 82.12 ± 0.11 |  |  |  |  | 
3 | COc1cccc(C(=O)c2c(-c3cccc(OC)c3)oc3cc(O)ccc3c2=O)c1 [2g, 7-Hydroxy-3-(3-methoxybenzoyl)-2-(3-methoxyphenyl)-4H-chromen-4-one] | 253 to 254 |  | 172.7 ± 1.66 |  |  | 11.52 ± 3.56 | 18.32 ± 0.40 | 0.02 ± 0.008 µM Trolox/1 µM of Synthesized Compounds | 81.5 ± 5.17 | 78.4 ± 5.44 | 79.1 ± 0.9 | 76.7 ± 1.16 |  | 46.3 ± 1.14 | contained anticancer activity |  |  |  | 
4 | COc1ccc(C(=O)c2c(-c3ccc(OC)cc3)oc3cc(O)ccc3c2=O)cc1 [2h, 7-hydroxy-3-(4-methoxybenzoyl)-2-(4-methoxyphenyl)-4H-chromen-4-one] | 300 to 301 |  |  |  |  | 6.55 ± 4.19 | 12.57 ± 6.18 | 0.06 ± 0.024 µM Trolox/1 µM of Synthesized Compounds | 75.2 ± 7.39 | 71.8 ± 3.27 | 77.2 ± 1.93 | 73.1 ± 0.79 | 84.9 ± 2.55 | 64.2 ± 0.76 |  |  |  |  | 
5 | CC(=O)O[C@H]1C(=O)[C@@]2(C)[C@H]([C@H](OC(=O)c3ccccc3)[C@]3(O)C[C@H](OC(=O)[C@H](O)[C@@H](NC(=O)c4ccccc4)c4ccccc4)C(C)=C1C3(C)C)[C@]1(OC(C)=O)CO[C@@H]1C[C@@H]2O [Paclitaxel, paclitaxel, reference compound] |  |  |  |  |  |  |  |  |  |  |  |  |  |  |  | potent phase arrest of G2/M | 5.89 ± 0.18 | 89.12 ± 1.14 | 4.99 ± 0.96

Further lines, with some results ahead:

Row | melting point [°C] | IC50 ([6]; 24 h) [µM] | IC50 ([6]; Homo sapiens, HeLa, 24 h) [µM] | EC50 [2] [µM] | EC50 ([1]; read-out: ABTS734nm EC50 ± SD) [µM] | Structure (SMILES) | ABTS734nm % Scavenging at 500 µM [1] [%] | DPPH517nm % SA ± SD [2] [%] | FRAP593nm Value ± SD (TE) [3] | viability at 24 h, 100 µM [4] [%] | viability at 48 h, 100 µM [4] [%] | viability at 24 h, 100 µM [5] [%] | viability at 48 h, 100 µM [5] [%] | viability at 100 µM [6, 8] [%] | viability at 100 µM [6, 9] [%] | Anticancer activity on cervical cancer cells ([6]; HeLa, 24 h) | Cell cycle phase arrest [7] | Cell population in G0/G1 phase [7] [%] | Cell population in G2/M phase [7] [%] | Cell population in S phase [7] [%]
6 | 156 to 158 |  |  |  |  | O=C(c1ccccc1)c1c(-c2ccccc2)oc2cccc(O)c2c1=O [2a, 3-Benzoyl-5-hydroxy-2-phenyl-4H-chromen-4-one] | 10.93 ± 1.44 | 2.23 ± 1.99 | 0.02 ± 0.004 µM Trolox/1 µM of Synthesized Compounds | 63.8 ± 3.36 | 88.5 ± 6.86 | 111 ± 6.37 | 103 ± 6.05 | 91.9 ± 2.06 | 58.8 ± 2.02 |  |  |  |  | 
7 | 270 to 271 |  | 166.9 ± 0.49 | > 750 |  | O=C(c1ccccc1)c1c(-c2ccccc2)oc2cc(O)ccc2c1=O [2d, 3-Benzoyl-7-hydroxy-2-phenyl-4H-chromen-4-one] | 27.59 ± 2.46 | 15.85 ± 4.61 | 0.02 ± 0.003 µM Trolox/1 µM of Synthesized Compounds | 77.8 ± 6.93 | 72.5 ± 3.41 | 88.7 ± 1.33 | 87.8 ± 1.8 | 85.17 ± 0.79 | 42.36 ± 0.09 | contained anticancer activity |  |  |  | 
8 | 196 to 197 |  | 108 ± 4.04 | > 750 | 158 ± 10.9 | O=C(c1ccccc1)c1c(-c2ccccc2)oc2cc(O)cc(O)c2c1=O [2e, 3-Benzoyl-5,7-dihydroxy-2-phenyl-4H-chromen-4-one] | 80.67 ± 0.30 | 46.30 ± 3.61 | 0.02 ± 0.002 µM Trolox/1 µM of Synthesized Compounds | 79.7 ± 3.26 | 69.1 ± 3.07 | 99.7 ± 2.41 | 93.9 ± 5.34 | 76 ± 1.52 | 26.5 ± 1.13 | contained anticancer activity |  |  |  | 
